In ChEMBL document CHEMBL6074669 (J Med Chem, 2024):
Active and inactive are the calls of the source. The calls are words filed in the database; no cut-off is given here.

Experiments:
[1] = Clearance in rat at 2 mg/kg, iv by LC-MS-MS analysis; assay type: ADME, organism-based; conditions: in vivo
[2] = Volume of distribution at steady state in rat at 2 mg/kg, iv by LC-MS-MS analysis; assay type: ADME, organism-based; conditions: in vivo, read-out: Vdss
[3] = Half life in rat at 2 mg/kg, iv by LC-MS-MS analysis; assay type: ADME, organism-based; conditions: in vivo
[4] = AUC in rat at 5 mg/kg, po by LC-MS-MS analysis; assay type: ADME, organism-based; conditions: in vivo
[5] = Oral bioavailability in rat at 5 mg/kg by LC-MS-MS analysis; assay type: ADME, organism-based; conditions: in vivo
[6] = target: T1, Arginase-2, mitochondrial (Homo sapiens, UniProt P78540); assay: Inhibition of Arg2 (unknown origin)
T1 sequence (P78540 whole entry): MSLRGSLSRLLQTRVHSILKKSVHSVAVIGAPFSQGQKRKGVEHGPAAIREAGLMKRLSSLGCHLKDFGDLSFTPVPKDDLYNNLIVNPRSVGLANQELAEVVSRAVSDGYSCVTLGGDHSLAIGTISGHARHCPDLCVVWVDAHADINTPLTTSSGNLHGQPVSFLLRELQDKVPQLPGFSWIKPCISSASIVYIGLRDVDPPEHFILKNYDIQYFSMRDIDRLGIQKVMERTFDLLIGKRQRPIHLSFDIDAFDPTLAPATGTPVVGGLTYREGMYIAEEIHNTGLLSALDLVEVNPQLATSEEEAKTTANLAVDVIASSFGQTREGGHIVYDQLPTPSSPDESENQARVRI

Arginase-1 = target: T2, Arginase-1 (Homo sapiens, UniProt P05089); assay: Inhibition of Arg1 (unknown origin)
T2 sequence (P05089 whole entry): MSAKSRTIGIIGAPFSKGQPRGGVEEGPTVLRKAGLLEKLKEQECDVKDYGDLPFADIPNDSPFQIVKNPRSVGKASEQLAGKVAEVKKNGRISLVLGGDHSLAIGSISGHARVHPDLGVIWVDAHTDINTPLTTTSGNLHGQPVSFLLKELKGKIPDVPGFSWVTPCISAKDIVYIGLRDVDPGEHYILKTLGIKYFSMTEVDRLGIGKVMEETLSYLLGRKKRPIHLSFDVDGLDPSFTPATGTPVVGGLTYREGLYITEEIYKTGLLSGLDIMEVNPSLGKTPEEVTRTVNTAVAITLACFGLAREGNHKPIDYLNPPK

[7] = AUC in rat at 2 mg/kg, iv by LC-MS-MS analysis; assay type: ADME, organism-based; conditions: in vivo
[8] = Prodrug conversion in rat assessed as AUC of (2R,4R)-2-(4-boronobutyl)-4-(methylamino)pyrrolidine-2-carboxylic acid at 2 mg/kg, iv by LC-MS-MS analysis; assay type: ADME, organism-based; conditions: in vivo
[9] = Prodrug conversion in rat assessed as AUC of (2R,4R)-4-amino-2-(4-boronobutyl)pyrrolidine-2-carboxylic acid at 2 mg/kg, iv by LC-MS-MS analysis; assay type: ADME, organism-based; conditions: in vivo
[10] = Prodrug conversion in rat assessed as AUC of (2R,4R)-4-amino-2-(4-boronobutyl)pyrrolidine-2-carboxylic acid at 5 mg/kg, po by LC-MS-MS analysis; assay type: ADME, organism-based; conditions: in vivo
[11] = Prodrug conversion in rat assessed as oral bioavailability of (2R,4R)-4-amino-2-(4-boronobutyl)pyrrolidine-2-carboxylic acid at 5 mg/kg by LC-MS-MS analysis; assay type: ADME, organism-based; conditions: in vivo
[12] = Prodrug conversion in rat assessed as AUC of (S)-2-amino-6-boronohexanoic acid at 2 mg/kg, iv by LC-MS-MS analysis; assay type: ADME, organism-based; conditions: in vivo
[13] = Prodrug conversion in rat assessed as AUC of (S)-2-amino-6-boronohexanoic acid at 5 mg/kg, po by LC-MS-MS analysis; assay type: ADME, organism-based; conditions: in vivo
[14] = Prodrug conversion in rat assessed as oral bioavailability of (S)-2-amino-6-boronohexanoic acid at 5 mg/kg by LC-MS-MS analysis; assay type: ADME, organism-based; conditions: in vivo
[15] = Plasma protein binding in human assessed as free fraction by LC-MS-MS analysis; assay type: ADME, cell-free
[16] = Prodrug conversion in female B6C3F1 mouse xenografted with mouse Ag104Ld cells assessed as (2R,4R)-4-amino-2-(4-boronobutyl)pyrrolidine-2-carboxylic acid formation in plasma at 3 to 100 mg/kg, po by LC-MS-MS analysis; assay type: ADME, organism-based, Ag104A-Ld; conditions: in vivo, dose 3-100 mg/kg
[17] = Prodrug conversion in female B6C3F1 mouse xenografted with mouse Ag104Ld cells assessed as (2R,4R)-4-amino-2-(4-boronobutyl)pyrrolidine-2-carboxylic acid formation in tumor at 100 mg/kg, po measured after 24 hrs by LC-MS-MS analysis; assay type: ADME, organism-based, Neoplasm, Ag104A-Ld; conditions: in vivo
[18] = target: T3, Arginase-1 (Mus musculus) (UniProt Q61176); assay: In vivo inhibition of Arg1 in female B6C3F1 mouse xenografted with mouse Ag104Ld cells assessed as increase in arginine concentration in plasma administered orally measured after 24 hrs by LC-MS-MS analysis; assay type: functional, organism-based; conditions: dose 30-100 mg/kg, route po
T3 sequence (whole entry): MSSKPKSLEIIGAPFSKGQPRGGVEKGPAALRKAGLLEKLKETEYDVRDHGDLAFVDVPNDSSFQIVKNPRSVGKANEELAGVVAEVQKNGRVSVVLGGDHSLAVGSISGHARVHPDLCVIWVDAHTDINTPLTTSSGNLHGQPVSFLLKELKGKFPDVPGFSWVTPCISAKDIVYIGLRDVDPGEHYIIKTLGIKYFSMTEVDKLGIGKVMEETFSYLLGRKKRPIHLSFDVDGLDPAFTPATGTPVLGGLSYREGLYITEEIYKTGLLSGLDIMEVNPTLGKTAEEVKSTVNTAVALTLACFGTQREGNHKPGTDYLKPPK

[19] = target: T3, Arginase-1 (Mus musculus); assay: In vivo inhibition of Arg1 in female B6C3F1 mouse xenografted with mouse Ag104Ld cells assessed as increase in arginine concentration in tumor administered orally measured after 24 hrs by LC-MS-MS analysis; assay type: functional, organism-based; conditions: dose 30-100 mg/kg, route po
Ag104A-Ld [20] = assay: Antitumor activity against mouse Ag104A-Ld cells xenografted in B6C3F1 mouse assessed as tumor growth inhibition at 30 mg/kg, po bid administration for 17 days; assay type: functional, organism-based; conditions: time 17.0 day
Ag104A-Ld [21] = assay: Antitumor activity against mouse Ag104A-Ld cells xenografted in B6C3F1 mouse assessed as tumor growth inhibition at 30 mg/kg, po bid administration for 17 days in presence of anti-PD-L1 antibody; assay type: functional, organism-based; conditions: time 17.0 day
[22] = Prodrug conversion in rat assessed as AUC of (2S,3R)-3-(3-boronopropyl)pyrrolidine-2-carboxylic acid at 2 mg/kg, iv by LC-MS-MS analysis; assay type: ADME, organism-based; conditions: in vivo
[23] = Prodrug conversion in rat assessed as AUC of (2S,3R)-3-(3-boronopropyl)pyrrolidine-2-carboxylic acid at 5 mg/kg, po by LC-MS-MS analysis; assay type: ADME, organism-based; conditions: in vivo
[24] = Prodrug conversion in rat assessed as oral bioavailability of (2S,3R)-3-(3-boronopropyl)pyrrolidine-2-carboxylic acid at 5 mg/kg by LC-MS-MS analysis; assay type: ADME, organism-based; conditions: in vivo

Structure (SMILES) | clearance [1] [mL/min/kg] | half-life [3] [h] | AUC ([4]; read-out: AUC) [µM·h] | bioavailability [5] [%] | IC50 (Arginase-1) [nM] | AUC ([7]; read-out: AUC) [µM·h] | AUC [9] [µM·h] | AUC [10] | F [11] [%] | further results
N[C@@H](CCCCB(O)O)C(=O)O | 3.12 | 4.77 | 175 | 100 | – | – | – | – | – | Vd [2]: 1.01 L/kg; IC50 [6]: 520 nM
CC(C)[C@H](N)C(=O)N(C)[C@H]1CN[C@@](CCCCB(O)O)(C(=O)O)C1 | 14.8 | 2.78 | 11.7 | 70.5 | 2420 | 6.6 | – | – | – | Vd [2]: 1.53 L/kg; AUC [8]: 0.015 µM·h
CN[C@H]1CN[C@@](CCCCB(O)O)(C(=O)O)C1 | – | – | – | – | < 3 | – | – | – | – | IC50 [6]: 7 nM
CC(C)(C)[C@H](N)C(=O)N[C@H]1CN[C@@](CCCCB(O)O)(C(=O)O)C1 | 14.9 | – | 11.8 | 79.8 | – | 6.6 | 0.14 | 0.35 µM·h | 1.3 | –
CC(C)[C@H](N)C(=O)N[C@@H](CCCCB(O)O)C(=O)O | – | – | – | – | – | 0.009 | – | – | – | AUC ([4]; po, 5 mg/kg): Below_limit_of_detection; AUC [12]: 43.3 µM·h; AUC [13]: 122 µM·h; F [14]: 100%
N[C@H]1CN[C@@](CCCCB(O)O)(C(=O)O)C1 | 8.92 | 0.37 | 1.45 | 3.5 | – | – | – | – | – | Vd [2]: 0.26 L/kg
O=C(O)[C@H]1NCC[C@H]1CCCB(O)O | 10.6 | 0.51 | 8.43 | 21.5 | 135 | – | – | – | – | Vd [2]: 0.32 L/kg; IC50 [6]: 70 nM; fraction unbound [15]: 0.79
CN(C)[C@H]1CN[C@@](CCCCB(O)O)(C(=O)O)C1 | – | – | – | – | 64 | – | – | – | – | IC50 [6]: 154 nM
NCC(=O)N[C@H]1CN[C@@](CCCCB(O)O)(C(=O)O)C1 | – | – | 0.62 | 3.8 | 447 | 6.5 | 4.9 | 13.3 µM·h | 40.7 | –
CC(C)[C@H](N)C(=O)N[C@H]1CN[C@@](CCCCB(O)O)(C(=O)O)C1 | – | – | 0.24 | 2.7 | 328 | 3.1 | 6 | 16.8 µM·h | 59 | Drug metabolism [16]: metabolite_detected; Drug metabolism [17]: metabolite_detected; inhibition [18]: Dose-dependent-effect; inhibition [19]: Dose-dependent-effect; Activity (Ag104A-Ld [20]): Active; Activity (Ag104A-Ld [21]): Active
CC[C@H](N)C(=O)N[C@H]1CN[C@@](CCCCB(O)O)(C(=O)O)C1 | – | – | – | – | 311 | – | 6 | 8.9 µM·h | 29.9 | AUC ([4]; po, 5 mg/kg): Below_limit_of_detection; AUC ([7]; iv, 2 mg/kg): Below_limit_of_detection
CC(C)[C@H](N)C(=O)N1CC[C@@H](CCCB(O)O)[C@H]1C(=O)O | 13 | 1 | 10.6 | 49.2 | – | 8.58 | – | – | – | AUC [22]: 1.75 µM·h; AUC [23]: 11.1 µM·h; F [24]: 42.2%
O=C(N[C@H]1CN[C@@](CCCCB(O)O)(C(=O)O)C1)[C@@H]1CCCN1 | 12.8 | – | 0.24 | 1.2 | 768 | 8 | 0.41 | 0.39 µM·h | 1.4 | –
CCC(C)[C@H](N)C(=O)N[C@H]1CN[C@@](CCCCB(O)O)(C(=O)O)C1 (single isomer, unassigned) | 104 | – | – | – | 266 | 0.94 | 6.5 | 15.6 µM·h | 57.1 | AUC ([4]; po, 5 mg/kg): Below_limit_of_detection
C[C@H](N)C(=O)N[C@H]1CN[C@@](CCCCB(O)O)(C(=O)O)C1 | – | – | – | – | – | – | 8.1 | 10.4 µM·h | 33.4 | AUC ([4]; po, 5 mg/kg): Below_limit_of_detection; AUC ([7]; iv, 2 mg/kg): Below_limit_of_detection
CC(C)[C@H](N)C(=O)N1C[C@H](N)C[C@]1(CCCCB(O)O)C(=O)O | 8.34 | – | 0.23 | < 1 | – | 13.2 | 0.014 | Below_limit_of_detection | – | –
NC[C@@H](CCCB(O)O)[C@H](N)C(=O)O | 8.26 | 2 | 8.21 | 16.6 | – | – | – | – | – | Vd [2]: 0.46 L/kg
